In paper PMC9937012 (Journal of Enzyme Inhibition and Medicinal Chemistry, 2023):

Legend:
[1] = molecular target: human H3R (Homo sapiens, UniProt Q9Y5N1); assay: Human H3R radioligand displacement assay; details: for inhibition at 1 µM: read-out: hH3R Inhibition at 1 µM [%] ±SD (n)
[2] = molecular target: human H1R (Homo sapiens, UniProt P35367); assay: Human H1R radioligand displacement assay; format: binding; details: read-out: hH1R Inhibition at 10 µM [%] ±SD (n)
[3] = molecular target: human AChE (Homo sapiens, UniProt P22303); assay: Inhibition of AChE; format: biochemical; details: for inhibition at 10 µM: read-out: AChE Inhibition at 10 µM [%]
human AChE, sequence (P22303 32-614): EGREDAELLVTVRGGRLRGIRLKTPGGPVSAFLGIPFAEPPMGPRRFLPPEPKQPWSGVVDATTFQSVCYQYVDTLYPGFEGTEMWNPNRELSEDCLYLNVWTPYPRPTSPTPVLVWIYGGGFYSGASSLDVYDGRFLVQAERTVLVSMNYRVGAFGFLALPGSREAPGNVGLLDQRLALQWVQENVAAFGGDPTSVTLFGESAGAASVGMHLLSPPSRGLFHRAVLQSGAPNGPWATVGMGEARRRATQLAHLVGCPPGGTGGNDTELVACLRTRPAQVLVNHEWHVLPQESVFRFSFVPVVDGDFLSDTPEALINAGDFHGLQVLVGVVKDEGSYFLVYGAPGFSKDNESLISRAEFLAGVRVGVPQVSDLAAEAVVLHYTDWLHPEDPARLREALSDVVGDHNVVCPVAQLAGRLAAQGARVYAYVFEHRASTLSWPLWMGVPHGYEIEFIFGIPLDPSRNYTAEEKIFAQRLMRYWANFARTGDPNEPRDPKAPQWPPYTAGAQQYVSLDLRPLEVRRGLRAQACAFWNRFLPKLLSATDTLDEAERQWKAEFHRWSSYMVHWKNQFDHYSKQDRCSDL

[4] = molecular target: human H4R (Homo sapiens, UniProt Q9H3N8); assay: Human H4R radioligand displacement assay; details: read-out: hH4R Inhibition at 10 µM [%] (n)
human H4R, sequence (Q9H3N8 whole entry): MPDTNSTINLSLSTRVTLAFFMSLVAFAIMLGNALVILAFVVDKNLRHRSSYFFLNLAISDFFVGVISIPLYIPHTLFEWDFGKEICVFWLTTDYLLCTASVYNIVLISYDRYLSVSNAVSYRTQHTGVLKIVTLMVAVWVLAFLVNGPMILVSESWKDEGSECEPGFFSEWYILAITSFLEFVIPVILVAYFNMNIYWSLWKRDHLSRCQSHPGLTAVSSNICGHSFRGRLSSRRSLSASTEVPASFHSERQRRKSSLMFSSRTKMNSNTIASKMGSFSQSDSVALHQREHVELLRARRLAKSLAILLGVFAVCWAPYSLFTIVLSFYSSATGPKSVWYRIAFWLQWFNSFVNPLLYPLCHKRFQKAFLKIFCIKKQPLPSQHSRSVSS

human H3R, sequence (Q9Y5N1 whole entry): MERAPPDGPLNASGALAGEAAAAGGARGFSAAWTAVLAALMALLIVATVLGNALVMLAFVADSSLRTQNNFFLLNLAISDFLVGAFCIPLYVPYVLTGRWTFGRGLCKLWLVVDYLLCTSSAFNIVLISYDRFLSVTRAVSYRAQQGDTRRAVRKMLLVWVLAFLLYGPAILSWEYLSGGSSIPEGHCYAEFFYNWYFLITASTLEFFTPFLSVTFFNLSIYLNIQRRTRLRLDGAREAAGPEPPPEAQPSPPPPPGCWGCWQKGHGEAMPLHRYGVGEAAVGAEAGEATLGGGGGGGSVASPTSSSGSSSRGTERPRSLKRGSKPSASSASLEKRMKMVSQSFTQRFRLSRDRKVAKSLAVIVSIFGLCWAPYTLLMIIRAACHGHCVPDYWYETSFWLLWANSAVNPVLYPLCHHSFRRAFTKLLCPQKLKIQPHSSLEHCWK
human H1R, sequence (P35367 whole entry): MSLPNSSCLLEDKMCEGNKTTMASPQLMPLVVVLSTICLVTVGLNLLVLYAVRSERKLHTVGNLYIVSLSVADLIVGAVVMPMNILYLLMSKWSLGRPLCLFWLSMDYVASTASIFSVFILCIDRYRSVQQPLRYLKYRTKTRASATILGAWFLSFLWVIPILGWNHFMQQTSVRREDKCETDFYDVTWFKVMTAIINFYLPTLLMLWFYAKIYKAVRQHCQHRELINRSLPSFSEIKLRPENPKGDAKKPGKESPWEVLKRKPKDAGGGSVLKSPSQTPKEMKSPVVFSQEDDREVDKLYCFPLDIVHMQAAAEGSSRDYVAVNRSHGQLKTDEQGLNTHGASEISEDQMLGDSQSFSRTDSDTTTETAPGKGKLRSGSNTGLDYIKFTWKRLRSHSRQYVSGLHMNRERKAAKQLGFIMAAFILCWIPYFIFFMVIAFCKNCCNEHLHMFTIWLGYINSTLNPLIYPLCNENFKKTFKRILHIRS

SMILES | inhibition at 1 µM [1] [%] | inhibition at 10 µM [2] [%] | IC50 [3] [µM] | inhibition at 10 µM [3] [%] | inhibition at 10 µM [4] [%] | Ki [1] [µM]
O=C(NC1CCCC1)c1nc2ccc(OCCCNC3CCCC3)cc2s1 [Compound 3i, N-Cyclopentyl-6-(3-(cyclopentylamino)propoxy)benzo[d]thiazole-2-carboxamide] | 51.2 ± 8.7 | 35.5 ± 9.8 | 7.31 ± 1.59 | 59 ± 6.16 | 50.5 ± 13 | 
O=C(NC1CCCCCC1)c1nc2ccc(OCCCCNC3CCCCCC3)cc2s1 [Compound 3k, N-Cycloheptyl-6-(4-(cycloheptylamino)butoxy)benzo[d]thiazole-2-carboxamide] | 39 ± 8.9 | 14.2 ± 11.7 | > 10 | 9.7 ± 4.91 | 61.5 ± 8.9 | 
O=C(NCC1CCCCC1)c1nc2ccc(OCCCCNCC3CCCCC3)cc2s1 [Compound 3l, N-(Cyclohexylmethyl)-6-(4-((cyclohexylmethyl)amino)butoxy)benzo[d]thiazole-2-carboxamide] | 57.3 ± 12.7 | 14.7 ± 8.5 | > 10 | 16.7 ± 7.79 | 49.7 ± 41 | 
O=C(NC1CC1)c1nc2ccc(OCCCCNC3CC3)cc2s1 [Compound 3m, N-Cyclopropyl-6-(4-(cyclopropylamino)butoxy)benzo[d]thiazole-2-carboxamide] | 67.8 ± 2.5 | 27 ± 10.6 | > 10 | 13.2 ± 8.07 | 53.6 ± 11.1 | 
O=C(NC1CCCCCC1)c1nc2ccc(OCCCCCNC3CCCCCC3)cc2s1 [Compound 3p, N-Cycloheptyl-6-((5-(cycloheptylamino)pentyl)oxy)benzo[d]thiazole-2-carboxamide] | 34 ± 7.5 | 17.5 ± 8.4 | > 10 | 9.5 ± 3.58 | 58.4 ± 8.3 | 
O=C(NCC1CCCCC1)c1nc2ccc(OCCCCCNCC3CCCCC3)cc2s1 [Compound 3q, N-(Cyclohexylmethyl)-6-((5-((cyclohexylmethyl)amino)pentyl)oxy)benzo[d]thiazole-2-carboxamide] |  | 40.6 ± 8.2 | > 10 | 22.2 ± 5.5 | 49.1 ± 22.8 | > 3
O=C(NC1CC1)c1nc2ccc(OCCCCCNC3CC3)cc2s1 [Compound 3r, N-Cyclopropyl-6-((5-(cyclopropylamino)pentyl)oxy)benzo[d]thiazole-2-carboxamide] | 38.8 ± 9.7 | 23.7 ± 12.7 | > 10 | 14.8 ± 6.73 | 51.6 ± 15.8 | 
